Values joined by “and” are separate entries in the source; they are usually repeats but may differ in a detail not shown here. Equal entries are not always repeated.
What was measured:
[1] = Salmon calcitonin (sCT) oral delivery, serum sCT by EIA; conditions: rats, delivery agent compound dose 150 mg/kg, sCT dose 30 μg/kg
Description: Oral dosing (PO) compositions of a delivery agent compound and salmon calcitonin (sCT) in deionized water were prepared as described in Table 2 below. […] Either the sodium salt of the compound was used or the free acid was converted to the sodium salt by stirring the resultant solution and adding one equivalent of sodium hydroxide (1.0 N) and diluting with water. The solution was vortexed, then heated (about 37° C.) and sonicated. The pH was adjusted to about 7 (about 6.5 to 8.5) with NaOH or HCl. 90 μg sCT from a sCT stock solution (2 mg/ml made by adding 10001 pH 4 phosphate buffer to sCT and allowing it to go into solution by sitting for about 10-20 minutes and periodically gently inverting) was added to the solution.
The typical dosing and sampling protocols were as follows. Male Sprague-Dawley rats weighing between 200-250 g were fasted for 24 hours and administered ketamine (44 mg/kg) and chlorpromazine (1.5 mg/kg) 15 minutes prior to dosing and again as needed to maintain anesthesia. A dosing group of five animals was administered one of the dosing solutions. For oral dosing, an 11 cm Rusch 8 French catheter was adapted to a 1 ml syringe with a pipette tip. The syringe was filled with dosing solution by drawing the solution through the catheter, which was then wiped dry. The catheter was placed down the esophagus leaving 1 cm of tubing past the incisors. Solution was administered by pressing the syringe plunger.
Blood samples were collected serially from the tail artery, typically at time=0, 10, 20, 30, 60 and 90 minutes. […] Numbers were adjusted according to baseline values obtained at time=0. The results from the animals in each dosing group were averaged for each time point.

[2] = Recombinant human growth hormone (rhGH) oral delivery, serum rhGH by immunoassay; conditions: oral gavage, rats; delivery agent compound 200 mg/kg, rhGH 3 mg/kg, volume dose 1 ml
[3] = Heparin oral/intracolonic delivery, clotting time by activated partial thromboplastin time (APTT); format: in vivo, Sprague-Dawley rats; conditions: IC (intracolonic), rats; delivery agent compound 50 mg/kg, heparin 25 mg/kg, volume dose 1 ml; baseline about 20 seconds
Description: Oral gavage (PO) and/or intracolonic (IC) dosing solutions containing a delivery agent compound and heparin sodium USP were prepared in 25% aqueous propylene glycol. […] This dry mixture was dissolved in 25% v/v aqueous propylene glycol, vortexed, and placed in a sonicator (about 37° C.). The pH was adjusted to about 7 (6.5 to 8.5) with aqueous NaOH (2N). The dosing solution was sonicated to produce a clear solution. The final volume was adjusted to about 3.0 ml.
(§1) The typical dosing and sampling protocols were as follows. […] The dosing solution was expressed slowly into the colon by pressing the syringe plunger.
Citrated blood samples were collected by cardiac puncture following the administration of ketamine (88 mg/kg), typically at 0.25, 0.5, 1.0 and 1.5 hours after dosing. Heparin absorption was verified by an increase in clotting time measured by the activated partial thromboplastin time (APTT) according to the method of Henry, J. B., Clinical Diagnosis and Management by Laboratory Methods, Philadelphia, Pa., W.B. Saunders (1979). Previous studies indicated baseline values of about 20 seconds.

[4] = Low molecular weight heparin (LMWH) oral/intracolonic delivery, plasma LMWH by anti-Factor Xa assay; format: in vivo, Sprague-Dawley rats; conditions: IC, rats, delivery agent compound 50 mg/kg, LMWH 750 IU/kg, 1 ml/kg
Description: Oral dosing (PO) and/or intracolonic (IC) compositions containing a delivery agent compound and low molecular weight heparin (LMWH) were prepared in 25% aqueous propylene glycol. […] Typically, the delivery agent compound and LMWH (Parnaparin, 91 IU/mg average molecular weight about 5,000, available from Opocrin, Modena, Italy) (typically 90-105 IU/mg, average molecular weight about 5,000) were mixed by vortex as dry powders. This dry mixture was dissolved in 25% v/v aqueous propylene glycol, vortexed, and placed in a sonicator (37° C.) to produce a clear solution. The pH was adjusted to about 7 (6.5-8.5) with 2N aqueous NaOH. The dosing solution was sonicated to produce a clear solution. The final volume was adjusted to 3.0 ml.
as §1
Citrated blood samples were collected by cardiac puncture following the administration of ketamine (88 mg/kg), typically at 0.5, 1.0, 2.0, 3.0 and 4.0 hours after dosing. LMWH absorption was verified by an increase in plasma LMWH measured by the anti-Factor Xa assay CHROMOSTRATE™ Heparin anti-Xa assay (available from Organon Teknika Corporation, Durham, N.C.). […] The peak of these mean plasma LMWH concentrations is reported below in Table 5.

[5] = Insulin oral delivery, serum human insulin by ELISA; conditions: rats
Description: Oral dosing (PO) compositions of delivery agent compound and human zinc insulin (minimum 26 IU/mg available from Calbiochem—Novabiochem Corp, La Jolla, Calif.) were prepared in deionized water. […] The pH was adjusted to about 7 to 8.5 with NaOH or HCl. […] The final delivery agent compound dose, insulin dose and dose volume amounts are listed below in Table 8.
The typical dosing and sampling protocols were as follows.
Serum insulin levels were determined with an Insulin ELISA Test Kit (Kit # DSL-10-1600 from Diagnostic Systems Laboratories, Inc., Webster, Tex.), modifying the standard protocol in order to optimize the sensitivity and linear range of the standard curve for the volumes and concentrations of the samples used in the present protocol. […] The five values for each time point were averaged and the results plotted as serum insulin concentration versus time.

[6] = delivery agent compound 200 mg/kg, insulin 0.5 mg/kg, 1 ml/kg
[7] = delivery agent compound 200 mg/kg, insulin 3 mg/kg, 1 ml/kg
[8] = delivery agent compound 100 mg/kg, insulin 3 mg/kg, 0.5 ml/kg

COc1cccc(OCCCCCCCC(=O)O)c1C(C)=O [Compound 39]
Mean Peak Serum sCT (pg/ml ± SD) (SE) ([1]; dose volume 1 (ml), 150 mg/kg): 115 ± 120 pg/mL and 115 ± 178 pg/mL
Mean Peak Serum [rhGH] [2]: 0 ng/mL

CNC(=O)c1ccccc1OCCCCCCCCCC(=O)O [Compound 51]
Mean Peak APTT ± SD [3]: 92.5 ± 41.5 s

NC(=O)c1ccccc1OCc1ccc(C(=O)O)cc1 [Compound 52]
Mean Peak Serum sCT (pg/ml ± SD) (SE) ([1]; dose volume 1 (ml)): 163 ± 300 pg/mL
Mean Peak Serum [rhGH] [2]: 0 ng/mL

CC(=O)c1ccccc1OCCCCCCCCCC(=O)O [Compound 54]
Mean Peak APTT ± SD [3]: 31.56 ± 7.54 s
Mean Peak Plasma LMWH Concentration ± SD [4]: 3.046 ± 0.422 IU/ml
Mean Peak Serum sCT (pg/ml ± SD) (SE) ([1]; dose volume 1 (ml)): 34 ± 47 pg/mL
Mean Peak Serum [rhGH] [2]: 6.37 ng/mL

COc1ccc(OCCCCCCCC(=O)O)c(C(C)=O)c1 [Compound 55]
Mean Peak Serum [rhGH] [2]: 12.4 ng/mL

COc1ccc(C(C)=O)c(OCCCCCCCC(=O)O)c1 [Compound 56]
Mean Peak Serum sCT (pg/ml ± SD) (SE) ([1]; dose volume 1 (ml), 150 mg/kg): 165 ± 243 pg/mL and 90 ± 125 pg/mL and 113 ± 115 pg/mL and 175 ± 150 pg/mL
Mean Peak Serum [rhGH] [2]: 0 ng/mL

O=Cc1ccccc1OCc1ccc(C(=O)O)cc1 [Compound 59]
Mean Peak Serum [INS] ± SD [5, 6]: 315.53 ± 154.56 μU/ml

O=Cc1ccccc1OCCCCCC(=O)O [Compound 60]
Mean Peak Serum [rhGH] [2]: 1.5 ± 3.3 ng/mL

CC(=O)c1ccc(OCCCCCCCC(=O)O)cc1 [Compound 62]
Mean Peak APTT ± SD [3]: 152.41 ± 136.63 s and 91.204 ± 117.43 s
Mean Peak Serum sCT (pg/ml ± SD) (SE) ([1]; dose volume 1 (ml)): 117 ± 158 pg/mL
Mean Peak Serum [rhGH] [2]: 6.2 ng/mL

CC(=O)c1cccc(OCCCCCCCC(=O)O)c1 [Compound 64]
Mean Peak APTT ± SD [3]: 220.988 ± 122.2 s and 125.372 ± 114.72 s
Mean Peak Serum sCT (pg/ml ± SD) (SE) ([1]; dose volume 1 (ml)): 138 ± 148 pg/mL
Mean Peak Serum [rhGH] [2]: 5 ng/mL

O=C(O)c1ccc(COc2ccccc2)cc1 [Compound 66]
Mean Peak Plasma LMWH Concentration ± SD ([4]; 50 mg/kg): 0.952 IU/ml and 1.114 ± 0.254 IU/ml
Mean Peak Serum sCT (pg/ml ± SD) (SE) ([1]; dose volume 4 (ml)): 109 ± 244 pg/mL
Mean Peak Serum [rhGH] [2]: 0 ng/mL

O=C(O)CCCCCCCOc1cccc(Cl)c1 [Compound 68]
Mean Peak Serum [INS] ± SD [5, 7]: 76.23 ± 76.88 μU/ml

O=C(O)CCCCCCCCCCOc1ccccc1O [Compound 72]
Mean Peak Serum [INS] ± SD [5, 7]: 4702.5 ± 4700.4 μU/ml
Mean Peak Serum [rhGH] [2]: 28 ng/mL

O=C(O)CCCCCCCOc1ccccc1Cl [Compound 73]
Mean Peak Serum [INS] ± SD [5, 8]: 147.66 ± 176.71 μU/ml

O=C(O)CCCCCCCOc1cc([N+](=O)[O-])ccc1O [Compound 74]
Mean Peak Serum [INS] ± SD [5, 8]: 70.69 ± 127.89 μU/ml

O=C(O)CCCCOc1ccccc1F [Compound 75]
Mean Peak Serum [INS] ± SD [5, 6]: 33.88 ± 38.49 μU/ml and 32.54 ± 19.78 μU/ml

O=C(O)CCCCOc1ccccc1C(F)(F)F [Compound 76]
Mean Peak Serum [INS] ± SD [5, 6]: 24.72 ± 25.53 μU/ml and 38.74 ± 74.4 μU/ml

O=C(O)c1ccc(C(O)COc2ccccc2O)cc1 (stereo not shown) [Compound 79]
Mean Peak Serum sCT (pg/ml ± SD) (SE) ([1]; dose volume 1 (ml)): 133 ± 90 pg/mL
